pIC50: −log10 of the molar value.
System: Trypanosoma cruzi
Assay: Antiparasitic activity against amastigotes of Trypanosoma cruzi CL Brener expressing Escherichia coli lacZ gene infected in mouse NCTC-929 cells assessed as parasite growth inhibition at 32 uM after 7 days by colorimetric assay
Format: functional
Set-up: scale not given: the % may be the effect or the level left
Conditions: not given

Row | SMILES | Activity
1 | COc1ccc([C@@H]2c3cc(OC)ccc3N(Cc3ccccc3)C[C@H]2C)cc1 | 100%
2 | COc1ccc([C@@H]2c3ccccc3N[C@H](c3ccccc3)[C@H]2C)cc1 | 100%
3 | CCc1ccc2c(c1)[C@@H](c1ccc(OC)cc1)[C@H](C)[C@@H](c1ccccc1)N2 | 63.72%
4 | O=C(Cn1ccnc1[N+](=O)[O-])NCc1ccccc1 [BENZNIDAZOLE] | 100%

System: Trypanosoma cruzi
Assay: Antiparasitic activity against amastigotes of Trypanosoma cruzi CL Brener expressing Escherichia coli lacZ gene infected in mouse NCTC-929 cells assessed as parasite growth inhibition at 0.5 uM after 7 days by colorimetric assay
Format: functional
Set-up: scale not given: the % may be the effect or the level left
Conditions: not given

Row | SMILES | Activity
5 | O=C(Cn1ccnc1[N+](=O)[O-])NCc1ccccc1 [BENZNIDAZOLE] | 41.64%

System: Trypanosoma cruzi
Assay: Antiparasitic activity against epimastigotes of Trypanosoma cruzi CL Brener expressing Escherichia coli lacZ gene […] assessed as parasite growth inhibition at 32 uM after 72 hrs by colorimetric assay
Format: functional
Set-up: scale not given: the % may be the effect or the level left
Conditions: not given

Row | SMILES | Activity
6 | COc1ccc([C@@H]2c3ccc([N+](=O)[O-])cc3N[C@H](c3ccccc3)[C@H]2C)cc1 | 83.67%
7 | COc1ccc([C@@H]2c3cc(N)ccc3N[C@H](c3ccccc3)[C@H]2C)cc1 | 97.06%
8 | COc1ccc([C@@H]2c3cccc(N)c3N[C@H](c3ccccc3)[C@H]2C)cc1 | 79.95%
9 | COc1ccc([C@@H]2c3ccccc3N(Cc3ccccc3)C[C@H]2C)cc1 | 14.08%
10 | COc1ccc([C@@H]2c3cc(OC)ccc3N(Cc3ccccc3)C[C@H]2C)cc1 | 88.64%
11 | COc1ccc([C@@H]2c3cc(Cl)ccc3N(Cc3ccccc3)C[C@H]2C)cc1 | 100%
12 | COc1cc([C@@H]2c3cccc([N+](=O)[O-])c3N[C@H](c3ccccc3)[C@H]2C)ccc1O | 86.78%
13 | COc1cc([C@@H]2c3ccccc3N[C@H](c3ccccc3)[C@H]2C)ccc1O | 86.23%
14 | COc1ccc([C@@H]2c3ccccc3N[C@H](c3ccccc3)[C@H]2C)cc1 | 95.98%
15 | CCc1ccc2c(c1)[C@@H](c1ccc(OC)cc1)[C@H](C)[C@@H](c1ccccc1)N2 | 95.85%
16 | O=C(Cn1ccnc1[N+](=O)[O-])NCc1ccccc1 [BENZNIDAZOLE] | 66.24%

System: not listed separately
Assay: Cytotoxicity against mouse NCTC-929 cells after 48 hrs by resazurin based fluorescence assay
Format: cell-based
Conditions: NCTC-929 cells, read-out: LC50

Row | SMILES | CC50 at 48 h
17 | COc1ccc([C@@H]2c3cc(N)ccc3N[C@H](c3ccccc3)[C@H]2C)cc1 | 9.56 µM
18 | COc1ccc([C@@H]2c3cc(OC)ccc3N(Cc3ccccc3)C[C@H]2C)cc1 | > 256 µM
19 | COc1ccc([C@@H]2c3cc(Cl)ccc3N(Cc3ccccc3)C[C@H]2C)cc1 | 23.6 µM
20 | COc1cc([C@@H]2c3cccc([N+](=O)[O-])c3N[C@H](c3ccccc3)[C@H]2C)ccc1O | < 8 µM
21 | COc1cc([C@@H]2c3ccccc3N[C@H](c3ccccc3)[C@H]2C)ccc1O | 13 µM
22 | COc1ccc([C@@H]2c3ccccc3N[C@H](c3ccccc3)[C@H]2C)cc1 | > 256 µM
23 | CCc1ccc2c(c1)[C@@H](c1ccc(OC)cc1)[C@H](C)[C@@H](c1ccccc1)N2 | > 256 µM
24 | O=C(Cn1ccnc1[N+](=O)[O-])NCc1ccccc1 [BENZNIDAZOLE] | > 256 µM

Same assay, conditions: nctc-929, 48 h

Row | SMILES | LC50
25 | COc1ccc([C@@H]2c3ccc([N+](=O)[O-])cc3N[C@H](c3ccccc3)[C@H]2C)cc1 | ND(Insoluble)
26 | COc1ccc([C@@H]2c3cccc(N)c3N[C@H](c3ccccc3)[C@H]2C)cc1 | ND(Insoluble)
27 | COc1ccc([C@@H]2c3ccccc3N(Cc3ccccc3)C[C@H]2C)cc1 | ND(Insoluble)

System: Trypanosoma cruzi
Assay: Antiparasitic activity against amastigotes of Trypanosoma cruzi CL Brener expressing Escherichia coli lacZ gene infected in mouse NCTC-929 cells assessed as parasite growth inhibition at 2 uM after 7 days by colorimetric assay
Format: functional
Set-up: scale not given: the % may be the effect or the level left
Conditions: not given

Row | SMILES | Activity
28 | COc1ccc([C@@H]2c3cc(OC)ccc3N(Cc3ccccc3)C[C@H]2C)cc1 | 25.86%
29 | O=C(Cn1ccnc1[N+](=O)[O-])NCc1ccccc1 [BENZNIDAZOLE] | 64.37%

System: Trypanosoma cruzi
Assay: Antiparasitic activity against epimastigotes of Trypanosoma cruzi CL Brener expressing Escherichia coli lacZ gene […] assessed as parasite growth inhibition after 72 hrs by colorimetric assay
Format: functional, organism-based
Conditions: not given

Row | SMILES | pIC50
30 | COc1ccc([C@@H]2c3ccc([N+](=O)[O-])cc3N[C@H](c3ccccc3)[C@H]2C)cc1 | > 5.10
31 | COc1ccc([C@@H]2c3cc(N)ccc3N[C@H](c3ccccc3)[C@H]2C)cc1 | > 5.10
32 | COc1ccc([C@@H]2c3cccc(N)c3N[C@H](c3ccccc3)[C@H]2C)cc1 | > 5.10
33 | COc1ccc([C@@H]2c3cc(OC)ccc3N(Cc3ccccc3)C[C@H]2C)cc1 | 5.12
34 | COc1ccc([C@@H]2c3cc(Cl)ccc3N(Cc3ccccc3)C[C@H]2C)cc1 | 5.19
35 | COc1cc([C@@H]2c3cccc([N+](=O)[O-])c3N[C@H](c3ccccc3)[C@H]2C)ccc1O | > 5.10
36 | COc1cc([C@@H]2c3ccccc3N[C@H](c3ccccc3)[C@H]2C)ccc1O | > 5.10
37 | COc1ccc([C@@H]2c3ccccc3N[C@H](c3ccccc3)[C@H]2C)cc1 | 5.23
38 | CCc1ccc2c(c1)[C@@H](c1ccc(OC)cc1)[C@H](C)[C@@H](c1ccccc1)N2 | 5.44
39 | O=C(Cn1ccnc1[N+](=O)[O-])NCc1ccccc1 [BENZNIDAZOLE] | 4.57

System: not listed separately
Assay: Selectivity index, ratio of LC50 for mouse NCTC-929 cells to IC50 for amastigotes of Trypanosoma cruzi CL Brener
Format: toxicity, cell-based
Conditions: read-out: Ratio LC50/IC50

Row | SMILES | selectivity ratio
40 | COc1ccc([C@@H]2c3cc(OC)ccc3N(Cc3ccccc3)C[C@H]2C)cc1 | > 59.9
41 | COc1ccc([C@@H]2c3ccccc3N[C@H](c3ccccc3)[C@H]2C)cc1 | > 36
42 | CCc1ccc2c(c1)[C@@H](c1ccc(OC)cc1)[C@H](C)[C@@H](c1ccccc1)N2 | > 35.9
43 | O=C(Cn1ccnc1[N+](=O)[O-])NCc1ccccc1 [BENZNIDAZOLE] | > 320

System: Trypanosoma cruzi
Assay: Antiparasitic activity against amastigotes of Trypanosoma cruzi CL Brener expressing Escherichia coli lacZ gene infected in mouse NCTC-929 cells assessed as parasite growth inhibition after 7 days by colorimetric assay
Format: functional, organism-based
Conditions: NCTC-929, 168 h

Row | SMILES | pIC50
44 | COc1ccc([C@@H]2c3cc(OC)ccc3N(Cc3ccccc3)C[C@H]2C)cc1 | 5.37
45 | COc1ccc([C@@H]2c3ccccc3N[C@H](c3ccccc3)[C@H]2C)cc1 | 5.15
46 | CCc1ccc2c(c1)[C@@H](c1ccc(OC)cc1)[C@H](C)[C@@H](c1ccccc1)N2 | 5.15
47 | O=C(Cn1ccnc1[N+](=O)[O-])NCc1ccccc1 [BENZNIDAZOLE] | 6.10

System: Trypanosoma cruzi
Assay: Antiparasitic activity against amastigotes of Trypanosoma cruzi CL Brener expressing Escherichia coli lacZ gene infected in mouse NCTC-929 cells assessed as parasite growth inhibition at 1 uM after 7 days by colorimetric assay
Format: functional
Set-up: scale not given: the % may be the effect or the level left
Conditions: not given

Row | SMILES | Activity
48 | O=C(Cn1ccnc1[N+](=O)[O-])NCc1ccccc1 [BENZNIDAZOLE] | 55.64%

System: Trypanosoma cruzi
Assay: Antiparasitic activity against amastigotes of Trypanosoma cruzi CL Brener expressing Escherichia coli lacZ gene infected in mouse NCTC-929 cells assessed as parasite growth inhibition at 4 uM after 7 days by colorimetric assay
Format: functional
Set-up: scale not given: the % may be the effect or the level left
Conditions: not given

Row | SMILES | Activity
49 | COc1ccc([C@@H]2c3cc(OC)ccc3N(Cc3ccccc3)C[C@H]2C)cc1 | 46.33%
50 | CCc1ccc2c(c1)[C@@H](c1ccc(OC)cc1)[C@H](C)[C@@H](c1ccccc1)N2 | 19.11%
51 | O=C(Cn1ccnc1[N+](=O)[O-])NCc1ccccc1 [BENZNIDAZOLE] | 74.71%

System: not listed separately
Assay: Selectivity index, ratio of LC50 for mouse NCTC-929 cells to IC50 for epimastigotes of Trypanosoma cruzi CL Brener
Format: toxicity, cell-based
Conditions: read-out: Ratio LC50/IC50

Row | SMILES | selectivity ratio
52 | COc1ccc([C@@H]2c3cc(N)ccc3N[C@H](c3ccccc3)[C@H]2C)cc1 | > 1.19
53 | COc1ccc([C@@H]2c3cc(OC)ccc3N(Cc3ccccc3)C[C@H]2C)cc1 | > 33.4
54 | COc1ccc([C@@H]2c3cc(Cl)ccc3N(Cc3ccccc3)C[C@H]2C)cc1 | 3.69
55 | COc1cc([C@@H]2c3ccccc3N[C@H](c3ccccc3)[C@H]2C)ccc1O | > 1.63
56 | COc1ccc([C@@H]2c3ccccc3N[C@H](c3ccccc3)[C@H]2C)cc1 | > 43.1
57 | CCc1ccc2c(c1)[C@@H](c1ccc(OC)cc1)[C@H](C)[C@@H](c1ccccc1)N2 | > 71.1
58 | O=C(Cn1ccnc1[N+](=O)[O-])NCc1ccccc1 [BENZNIDAZOLE] | > 9.44

System: Trypanosoma cruzi
Assay: Antiparasitic activity against amastigotes of Trypanosoma cruzi CL Brener expressing Escherichia coli lacZ gene infected in mouse NCTC-929 cells assessed as parasite growth inhibition at 16 uM after 7 days by colorimetric assay
Format: functional
Set-up: scale not given: the % may be the effect or the level left
Conditions: not given

Row | SMILES | Activity
59 | COc1ccc([C@@H]2c3cc(OC)ccc3N(Cc3ccccc3)C[C@H]2C)cc1 | 100%
60 | COc1ccc([C@@H]2c3ccccc3N[C@H](c3ccccc3)[C@H]2C)cc1 | 99.12%
61 | CCc1ccc2c(c1)[C@@H](c1ccc(OC)cc1)[C@H](C)[C@@H](c1ccccc1)N2 | 47.35%
62 | O=C(Cn1ccnc1[N+](=O)[O-])NCc1ccccc1 [BENZNIDAZOLE] | 100%

System: not listed separately
Assay: Cytotoxicity against mouse NCTC-929 cells at 256 uM after 48 hrs by resazurin based fluorescence assay
Format: cell-based
Conditions: nctc-929, 48 h

Row | SMILES | Activity
63 | COc1ccc([C@@H]2c3ccc([N+](=O)[O-])cc3N[C@H](c3ccccc3)[C@H]2C)cc1 | 8.43%
64 | COc1ccc([C@@H]2c3cc(N)ccc3N[C@H](c3ccccc3)[C@H]2C)cc1 | 85.85%
65 | COc1ccc([C@@H]2c3cccc(N)c3N[C@H](c3ccccc3)[C@H]2C)cc1 | 66.33%
66 | COc1ccc([C@@H]2c3ccccc3N(Cc3ccccc3)C[C@H]2C)cc1 | 42.15%
67 | COc1ccc([C@@H]2c3cc(OC)ccc3N(Cc3ccccc3)C[C@H]2C)cc1 | 25.02%
68 | COc1ccc([C@@H]2c3cc(Cl)ccc3N(Cc3ccccc3)C[C@H]2C)cc1 | ND(Insoluble)
69 | COc1cc([C@@H]2c3cccc([N+](=O)[O-])c3N[C@H](c3ccccc3)[C@H]2C)ccc1O | 84.75%
70 | COc1cc([C@@H]2c3ccccc3N[C@H](c3ccccc3)[C@H]2C)ccc1O | 84.12%
71 | COc1ccc([C@@H]2c3ccccc3N[C@H](c3ccccc3)[C@H]2C)cc1 | 43.05%
72 | CCc1ccc2c(c1)[C@@H](c1ccc(OC)cc1)[C@H](C)[C@@H](c1ccccc1)N2 | 0%
73 | O=C(Cn1ccnc1[N+](=O)[O-])NCc1ccccc1 [BENZNIDAZOLE] | 17.38%

System: Trypanosoma cruzi
Assay: Antiparasitic activity against amastigotes of Trypanosoma cruzi CL Brener expressing Escherichia coli lacZ gene infected in mouse NCTC-929 cells assessed as parasite growth inhibition at 8 uM after 7 days by colorimetric assay
Format: functional
Set-up: scale not given: the % may be the effect or the level left
Conditions: not given

Row | SMILES | Activity
74 | COc1ccc([C@@H]2c3cc(OC)ccc3N(Cc3ccccc3)C[C@H]2C)cc1 | 100%
75 | COc1ccc([C@@H]2c3ccccc3N[C@H](c3ccccc3)[C@H]2C)cc1 | 52.21%
76 | CCc1ccc2c(c1)[C@@H](c1ccc(OC)cc1)[C@H](C)[C@@H](c1ccccc1)N2 | 58.63%
77 | O=C(Cn1ccnc1[N+](=O)[O-])NCc1ccccc1 [BENZNIDAZOLE] | 96.63%

Reference: ChEMBL document CHEMBL2417513, “Selective activity of 2,4-diaryl-1,2,3,4-tetrahydroquinolines on Trypanosoma cruzi epimastigotes and amastigotes expressing β-galactosidase” (Bioorg Med Chem Lett, 2013)
